Data as given in US20250236629A1, “MEDIUM- OR MACRO-CYCLIC BENZYL-SUBSTITUTED HETEROCYCLE DERIVATIVES AND RELATED USES” (CENTESSA PHARMACEUTICALS (UK) LIMITED, priority 2022, published 2025).

molecular target: T1, human orexin type 2 receptor (hOX2R) (Homo sapiens, UniProt O43614); test: Orexin type 2 receptor agonist activity, intracellular Ca2+ (FLIPR TETRA) in CHO cells; type: cell-based; settings: CHO cells expressing hOX2R; Ca2+ fluorescence area; 100% = 10 nM human orexin A; read-out: hOx2 pEC50 (converted)
T1 construct: the Orexin receptor cDNA was inserted into pcDNA3.1(+) plasmid vector; expressed in transfected cells
T1 sequence (O43614 1-444): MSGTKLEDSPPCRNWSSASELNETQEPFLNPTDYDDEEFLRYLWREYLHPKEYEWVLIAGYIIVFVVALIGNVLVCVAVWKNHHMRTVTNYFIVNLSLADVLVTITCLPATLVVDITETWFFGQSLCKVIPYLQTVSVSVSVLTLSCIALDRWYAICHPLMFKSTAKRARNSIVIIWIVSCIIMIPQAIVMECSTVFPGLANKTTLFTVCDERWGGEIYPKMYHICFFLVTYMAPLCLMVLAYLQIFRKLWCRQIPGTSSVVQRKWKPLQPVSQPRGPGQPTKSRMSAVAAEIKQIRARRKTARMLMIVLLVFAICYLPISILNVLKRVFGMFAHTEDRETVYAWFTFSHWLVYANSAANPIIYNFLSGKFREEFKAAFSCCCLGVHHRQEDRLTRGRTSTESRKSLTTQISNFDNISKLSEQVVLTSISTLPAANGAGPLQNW
Experimental: Stable cell line generation. Obtainment of cells stably expressing either human orexin type 2 or human orexin type 1 receptor: to obtain a stable cell line the Orexin receptor cDNA was inserted into pcDNA3.1(+) plasmid vector and clones identified by G418 drug resistance selection. […] A single clone for OX2R—CHO and OX1R—CHO were grown in bulk and frozen to generate a cell bank for routine screening.
Measurement of orexin type 2 receptor agonist activity. Chinese hamster ovary (CHO) cells expressing human orexin type 2 receptor (hOX2R) or human orexin type 1 receptor (hOX1R) were seeded in each well of 384 well black clear bottom plates (BD Flacon) at 10,000 cells per well and cultured for 24 hr in an Ham's F12 (Gibco) medium containing 10% fetal calf serum (Sigma Aldrich) under the conditions of 37° C., 5% CO2. After removal of the medium, 50 μl of assay buffer 1 (0.1% bovine serum albumin (Sigma Aldrich), 20 mM HEPES (Molecular Dimensions), […] probenecid (Sigma Aldrich), 1× Calcium 5 dye (Molecular Devices) in Hank's balanced salt solution (Invitrogen)) was added, and the cells were incubated for 60 min under the conditions of 37° C., 5% CO2. A test compound was dissolved in dimethyl sulfoxide (Sigma Aldrich) to 10 mM, and then diluted with assay buffer 2 (20 mM HEPES, Hank's balanced salt solution, 0.1% bovine serum albumin). For the reaction, a test compound solution (10 μl) was added using Fluorescent Imaging Plate Reader TETRA (FLIPR TETRA: manufactured by Molecular Devices), a fluorescence value (excitation wavelength 488 nm, measurement wavelength 570 nm) of each well was measured every one second for 2 min, and the agonist activity was determined using the area of the fluorescence value as an indicator of intracellular Ca^2+ concentration. The agonist activity of the test compound was calculated assuming that the fluorescence value of the well added with only the dilution buffer was 0% and the fluorescence value of the well added with 10 nM human orexin A (Tocris) buffer was 100%.
Values of hOx2 pEC50 in Table B are presented in ranges, in which 6.0≤“+”<7.0, 7.0≤“++”<8.0, 8.0≤“+++”<9.0, and 9.0≤“++++”<10.4.

| EC50 [nM] | Compound |
| --- | --- |
| 10 to 100 | CN1CCOc2c(F)cccc2-c2cccc(c2)C[C@H]2[C@@H](NS(=O)(=O)C(F)F)C(F)(F)CN2C1=O [Example 1, 1,1-difluoro-N-((4^2S,4^3R)-1^3,4^4,4^4-trifluoro-6-methyl-5-oxo-9-oxa-6-aza-4(2,1)-pyrrolidina-1(1,2),2(1,3)-dibenzenacyclononaphane-4^3-yl)methanesulfonamide] |
| 10 to 100 | C[C@H]1CN2C(=O)N(C)CCOc3ccccc3-c3cccc(c3F)C[C@H]2[C@H]1NS(=O)(=O)CF [Example 2, 1-fluoro-N-((4^2S,4^3S,4^4S)-2^2-fluoro-4^4,6-dimethyl-5-oxo-9-oxa-6-aza-4(2,1)-pyrrolidina-1(1,2),2(1,3)-dibenzenacyclononaphane-4^3-yl)methanesulfonamide] |
| 0.0398 to 1 | CC(C)S(=O)(=O)N[C@H]1CCCN2C(=O)CCOc3ccccc3-c3cccc(c3F)C[C@@H]12 [Example 3, N-((4^2S,4^3S)-22-fluoro-5-oxo-8-oxa-4(2,1)-piperidina-1(1,2),2(1,3)-dibenzenacyclooctaphane-4^3-yl)propane-2-sulfonamide] |
| 1 to 10 | CN1CCOc2ccccc2-c2cccc(c2F)C[C@H]2[C@@H](NS(=O)(=O)C(F)F)C3(CC3)CN2C1=O [Example 4, 1,1-difluoro-N-((2′S,3′S)-2′-fluoro-6′-methyl-5′-oxospiro[cyclopropane-1,4′-9-oxa-6-aza-4(2,1)-pyrrolidina-1(1,2),2(1,3)-dibenzenacyclononaphan]-3′-yl)methanesulfonamide] |
| 1 to 10 | CN1CCOc2c(F)cccc2-c2cccc(c2)C[C@H]2[C@@H](NS(=O)(=O)CF)C(F)(F)CN2C1=O [Example 7, 1-fluoro-N-((4^2S,4^3R)-1^3,4^4,4^4-trifluoro-6-methyl-5-oxo-9-oxa-6-aza-4(2,1)-pyrrolidina-1(1,2),2(1,3)-dibenzenacyclononaphane-4^3-yl)methanesulfonamide] |
| 0.0398 to 1 | CN1CCOc2c(F)cccc2-c2cccc(c2F)C[C@H]2[C@@H](NS(=O)(=O)CF)C3(CC3)CN2C1=O [Example 8, N-((2′S,3′S)-2′,3′-difluoro-6′-methyl-5′-oxospiro[cyclopropane-1,4′-9-oxa-6-aza-4(2,1)-pyrrolidina-1(1,2),2(1,3)-dibenzenacyclononaphan]-3′-yl)-1-fluoromethanesulfonamide] |
| 1 to 10 | CCS(=O)(=O)N[C@@H]1[C@@H]2Cc3cccc(c3F)-c3cccc(F)c3OCCN(C)C(=O)N2CC12CC2 [Example 9, N-((2′S,3′S)-2′,3′-difluoro-6′-methyl-5′-oxospiro[cyclopropane-1,4′-9-oxa-6-aza-4(2,1)-pyrrolidina-1(1,2),2(1,3)-dibenzenacyclononaphan]-3′-yl)ethanesulfonamide] |
| 1 to 10 | CCN1CCOc2ccccc2-c2cccc(c2)C[C@H]2[C@@H](NS(=O)(=O)C(F)F)C3(CC3)CN2C1=O [Example 10, N-((2′S,3′S)-6′-ethyl-5′-oxospiro[cyclopropane-1,4′-9-oxa-6-aza-4(2,1)-pyrrolidina-1(1,2),2(1,3)-dibenzenacyclononaphan]-3′-yl)-1,1-difluoromethanesulfonamide] |
| 10 to 100 | CN1CCOc2c(F)cc(F)cc2-c2cccc(c2F)C[C@H]2[C@@H](NS(=O)(=O)C(F)F)[C@@H](F)CN2C1=O [Example 11, 1,1-difluoro-N-((4^2S,4^3R,4^4S)-1^3,1^5,2^2,4^4-tetrafluoro-6-methyl-5-oxo-9-oxa-6-aza-4(2,1)-pyrrolidina-1(1,2),2(1,3)-dibenzenacyclononaphane-4^3-yl)methanesulfonamide] |
| 1 to 10 | CN1CCOc2c(F)cccc2-c2cccc(c2F)C[C@H]2[C@@H](NS(=O)(=O)CF)[C@@H](F)CN2C1=O [Example 12, 1-fluoro-N-((4^2S,4^3R,4^4S)-1^3,2^2,4^4-trifluoro-6-methyl-5-oxo-9-oxa-6-aza-4(2,1)-pyrrolidina-1(1,2),2(1,3)-dibenzenacyclononaphane-4^3-yl)methanesulfonamide] |
| 1 to 10 | O=C1CCOc2c(F)cc(F)cc2-c2cccc(c2)C[C@H]2[C@@H](NS(=O)(=O)CF)CCCN12 [Example 13, N-((4^2S,4^3S)-1^3,1^5-difluoro-5-oxo-8-oxa-4(2,1)-piperidina-1(1,2),2(1,3)-dibenzenacyclooctaphane-4^3-yl)-1-fluoromethanesulfonamide] |
| 1 to 10 | O=C1CCOc2c(F)cc(F)cc2-c2cccc(c2)C[C@H]2[C@@H](NS(=O)(=O)C(F)F)CCCN12 [Example 14, N-((4^2S,4^3S)-1^3,1^5-difluoro-5-oxo-8-oxa-4(2,1)-piperidina-1(1,2),2(1,3)-dibenzenacyclooctaphane-4^3-yl)-1,1-difluoromethanesulfonamide] |
| 1 to 10 | CCS(=O)(=O)N[C@H]1[C@@H](F)CN2C(=O)N(C)CCOc3ccccc3-c3cccc(c3)C[C@@H]12 [Example 15, N-((4^2S,4^3R,4^4S)-4^4-fluoro-6-methyl-5-oxo-9-oxa-6-aza-4(2,1)-pyrrolidina-1(1,2),2(1,3)-dibenzenacyclononaphane-4^3-yl)ethanesulfonamide] |
| 1 to 10 | CCS(=O)(=O)N[C@H]1[C@@H](F)CN2C(=O)N(C)CCOc3c(F)cccc3-c3cccc(c3)C[C@@H]12 [Example 16, N-((4^2S,4^3R,4^4S)-1^3,4^4-difluoro-6-methyl-5-oxo-9-oxa-6-aza-4(2,1)-pyrrolidina-1(1,2),2(1,3)-dibenzenacyclononaphane-4^3-yl)ethanesulfonamide] |
| 1 to 10 | CCS(=O)(=O)N[C@H]1[C@@H](F)CN2C(=O)N(C)CCOc3ccccc3-c3cccc(c3F)C[C@@H]12 [Example 17, N-((4^2S,4^3R,4^4S)-2^2,4^4-difluoro-6-methyl-5-oxo-9-oxa-6-aza-4(2,1)-pyrrolidina-1(1,2),2(1,3)-dibenzenacyclononaphane-4^3-yl)ethanesulfonamide] |
| 1 to 10 | CCS(=O)(=O)N[C@H]1[C@@H](F)CN2C(=O)N(C)CCOc3c(F)cccc3-c3cccc(c3F)C[C@@H]12 [Example 18, N-((4^2S,4^3R,4^4S)-1^3,2^2,4^4-trifluoro-6-methyl-5-oxo-9-oxa-6-aza-4(2,1)-pyrrolidina-1(1,2),2(1,3)-dibenzenacyclononaphane-4^3-yl)ethanesulfonamide] |
| 1 to 10 | CN1CCOc2c(F)cccc2-c2cccc(c2)C[C@H]2[C@@H](NS(=O)(=O)C(F)F)[C@@H](F)CN2C1=O [Example 20, N-((4^2S,4^3R,4^4S)-1^3,4^4-difluoro-6-methyl-5-oxo-9-oxa-6-aza-4(2,1)-pyrrolidina-1(1,2),2(1,3)-dibenzenacyclononaphane-4^3-yl)-1,1-difluoromethanesulfonamide] |
| 1 to 10 | CN1CCOc2c(F)cccc2-c2cccc(c2)C[C@H]2[C@@H](NS(=O)(=O)CF)[C@@H](F)CN2C1=O [Example 21, N-((4^2S,4^3R,4^4S)-1^3,4^4-difluoro-6-methyl-5-oxo-9-oxa-6-aza-4(2,1)-pyrrolidina-1(1,2),2(1,3)-dibenzenacyclononaphane-4^3-yl)-1-fluoromethanesulfonamide] |
| 1 to 10 | O=C1N(CC(F)F)CCOc2c(F)cccc2-c2cccc(c2)C[C@H]2[C@@H](NS(=O)(=O)CF)C3(CC3)CN12 [Example 22, N-((2′S,3′S)-6′-(2,2-difluoro-ethyl)-3′-fluoro-5′-oxospiro[cyclopropane-1,4′-9-oxa-6-aza-4(2,1)-pyrrolidina-1(1,2),2(1,3)-dibenzenacyclononaphan]-3′-yl)-1-fluoromethanesulfonamide] |
| 1 to 10 | CCS(=O)(=O)N[C@@H]1[C@@H]2Cc3cccc(c3)-c3ccccc3OCCN(C)C(=O)N2CC1(F)F [Example 23, N-((4^2S,4^3R)-4^4,4^4-difluoro-6-methyl-5-oxo-9-oxa-6-aza-4(2,1)-pyrrolidina-1(1,2),2(1,3)-dibenzenacyclononaphane-4^3-yl)ethanesulfonamide] |
| 1 to 10 | O=C1CCOc2c(F)cccc2-c2cccc(c2)C[C@H]2[C@@H](NS(=O)(=O)C(F)F)CCCN12 [Example 24, 1,1-difluoro-N-((4^2S,4^3S)-1^3-fluoro-5-oxo-8-oxa-4(2,1)-piperidina-1(1,2),2(1,3)-dibenzenacyclooctaphane-4^3-yl)methanesulfonamide] |
